Experimental data: patent publication US12479838B2, “D3 receptor agonist compounds; methods of preparation; intermediates thereof; and methods of use thereof” (THE UNITED STATES OF AMERICA, AS REPRESENTED BY THE …, priority 2019, dated 2025)
Where two headings read alike, the source gives them in different places.

Legend:
[1] = target: human D2LR (Homo sapiens (Human), UniProt P14416); assay: Radioligand competition binding vs. [3H]-(R)-(+)-7-OH-DPAT, hD2R
[2] = target: human D3R (Homo sapiens (Human), UniProt P35462); assay: Radioligand competition binding vs. [3H]-(R)-(+)-7-OH-DPAT, hD3R; conditions: for D2R/D3R: ratio of Ki, D3R selectivity over D2R
[3] = vs. [3H]-(R)-(+)-7-OH-DPAT, HEK293 cells stably expressing hD2R, read-out: D2R Ki ± SEM
[4] = vs. [3H]-(R)-(+)-7-OH-DPAT, HEK293 cells stably expressing hD3R, read-out: D3R Ki ± SEM

Chain of human D3R (P35462 whole entry): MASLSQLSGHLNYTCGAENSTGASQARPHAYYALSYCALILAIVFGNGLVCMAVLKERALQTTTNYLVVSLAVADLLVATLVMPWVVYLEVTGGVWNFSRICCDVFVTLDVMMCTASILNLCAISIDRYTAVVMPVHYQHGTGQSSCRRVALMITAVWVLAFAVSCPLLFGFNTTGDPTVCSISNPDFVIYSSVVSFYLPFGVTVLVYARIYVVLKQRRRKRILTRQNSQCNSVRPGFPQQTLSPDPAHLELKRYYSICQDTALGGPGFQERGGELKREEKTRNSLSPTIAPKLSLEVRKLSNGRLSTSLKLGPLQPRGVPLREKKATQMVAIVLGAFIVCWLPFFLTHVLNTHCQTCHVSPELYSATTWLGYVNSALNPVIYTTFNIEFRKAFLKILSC
Chain of human D2LR (P14416 whole entry): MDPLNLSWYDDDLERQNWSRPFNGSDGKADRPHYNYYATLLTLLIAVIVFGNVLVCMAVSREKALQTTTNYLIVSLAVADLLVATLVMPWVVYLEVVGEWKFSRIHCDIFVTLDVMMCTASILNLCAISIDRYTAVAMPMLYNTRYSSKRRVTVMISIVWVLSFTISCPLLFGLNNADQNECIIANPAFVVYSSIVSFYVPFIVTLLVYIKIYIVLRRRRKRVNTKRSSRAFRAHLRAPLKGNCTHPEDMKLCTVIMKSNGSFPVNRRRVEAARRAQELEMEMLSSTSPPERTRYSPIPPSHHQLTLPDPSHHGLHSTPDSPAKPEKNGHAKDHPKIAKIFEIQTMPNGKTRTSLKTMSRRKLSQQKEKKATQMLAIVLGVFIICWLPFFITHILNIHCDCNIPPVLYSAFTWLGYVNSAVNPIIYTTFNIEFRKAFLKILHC

Structure (SMILES)	Ki [1] [nM]	Ki [2] [nM]	Ki [1, 3] [nM]	D2R/D3R ([2]; vs. [3H]-(R)-(+)-7-OH-DPAT)	Ki [2, 4] [nM]	D3R affinity, fold better than its (2R,5S) diastereoisomer ([2]; vs. [3H]-(R)-(+)-7-OH-DPAT) [fold]
CCCN1CCO[C@@H]2c3cc(O)ccc3OC[C@@H]21 (racemic) [(±)-cis-2, reference compound]	> 10000	> 10000	–	–	–	–
C[C@H]1CO[C@H](c2ccc(N)nc2)CN1CC1CC1CNC(=O)c1cc2ccccc2[nH]1 (mixture of isomers) [rac-trans-AB05-26, trans-N-((2-(((2R,5S)-2-(6-aminopyridin-3-yl)-5-methylmorpholino)methyl)cyclopropyl)methyl)-1H-indole-2-carboxamide]	–	–	14100	0.213	66200	–
O=C(NCCCCNC1COc2ccc(O)cc2C1=O)c1cc2ccccc2[nH]1 (single isomer, unassigned) [SLC02-16A, N-(4-((6-hydroxy-4-oxochroman-3-yl)amino)butyl)-1H-indole-2-carboxamide]	–	–	245 ± 32	0.710	354 ± 45.1	–
O=C(NCCCCNC1COc2ccc(O)cc2C1=O)c1cc2ccccc2[nH]1 (single isomer, unassigned) [SLC02-16B, N-(4-((6-hydroxy-4-oxochroman-3-yl)amino)butyl)-1H-indole-2-carboxamide]	–	–	1430	0.808	1770	–
CCCN1CCO[C@@H]2c3cc(OCCCCN4C(=O)c5ccccc5C4=O)ccc3OC[C@H]21 [AB02-119]	–	–	2510	2.11	1190	–
CCCN(CCC)c1ccc(C2CN(CCC)C(C)CO2)cn1 (centres unmarked) [AB03-14]	–	–	> 5000	–	> 10000	–
CCCN1CCO[C@@H]2c3cc(OCCCCOc4ccc5c(c4)NC(=O)CC5)ccc3OC[C@H]21 [AB04-38, 7-(4-(((4aR,10bR)-4-propyl-3,4,4a,10b-tetrahydro-2H,5H-chromeno[4,3-b][1,4]oxazin-9-yl)oxy)butoxy)-3,4-dihydroquinolin-2(1H)-one]	–	–	10100	6.35	1590	–
CCCN1CCO[C@@H]2c3cc(OCCCCNC(=O)c4ccc5scnc5c4)ccc3OC[C@H]21 [AB04-41, N-(4-(((4aR,10bR)-4-propyl-3,4,4a,10b-tetrahydro-2H,5H-chromeno[4,3-b][1,4]oxazin-9-yl)oxy)butyl)benzo[d]thiazole-5-carboxamide]	–	–	9160	4.30	2130	–
CCCN1CCO[C@@H]2c3cc(OCCCCNC(=O)c4cc5cccnc5[nH]4)ccc3OC[C@H]21 [AB04-42, N-(4-(((4aR,10bR)-4-propyl-3,4,4a,10b-tetrahydro-2H,5H-chromeno[4,3-b][1,4]oxazin-9-yl)oxy)butyl)-1H-pyrrolo[2,3-b]pyridine-2-carboxamide]	–	–	27000	3.12	8660	–
Oc1ccc2c(c1)[C@H]1OCCN[C@@H]1CO2 [AB04-75, (4aR,10bR)-3,4,4a,10b-tetrahydro-2H,5H-chromeno[4,3-b][1,4]oxazin-9-ol, reference compound]	–	–	4250	10.5	403 ± 5.55	–
C[C@H]1CO[C@H](c2ccc(N)nc2)CN1 [AB04-85A, 5-((2R,5S)-5-methylmorpholin-2-yl)pyridin-2-amine]	–	–	7100	4.67	1520	–
C[C@H]1CO[C@@H](c2ccc(N)nc2)CN1 [AB04-85B, 5-((2S,5S)-5-methylmorpholin-2-yl)pyridin-2-amine]	–	–	2340	5.52	424 ± 32.4	–
C[C@H]1CO[C@H](c2ccc(N)nc2)CN1CCCCOc1ccc2c(c1)NC(=O)CC2 [AB04-95, 7-(4-((2R,5S)-2-(6-aminopyridin-3-yl)-5-methylmorpholino)butoxy)-3,4-dihydroquinolin-2(1H)-one]	–	–	2660	0.110	24200	–
C[C@H]1CO[C@@H](c2ccc(N)nc2)CN1CCCCOc1ccc2c(c1)NC(=O)CC2 [AB04-96, 7-(4-((2S,5S)-2-(6-aminopyridin-3-yl)-5-methylmorpholino)butoxy)-3,4-dihydroquinolin-2(1H)-one]	–	–	34.6 ± 4.86	1.11	31.2 ± 8.72	775
